Legend:
[1] = biological target: T1, cloned human hERG channel (Homo sapiens, UniProt Q12809); assay: hERG current block in HEK cells, whole-cell patch clamp; format: cell-based; conditions: HEK cells expressing cloned human hERG channel, 37±1° C., peak current at −40 mV; read-out: hERG (μM), IC50 for inhibition of hERG
T1 construct: expressed in transfected cells; host or cells: HEK cells
Procedure: Electrophysiological measurements of hERG current were made in vitro to assess the hERG block produced by the phenyloin conjugates. hERG currents were measured in HEK cells expressing the cloned human hERG channel using the whole-cell variant of the patch clamp method. Experiments were performed at 37±1° C. hERG current was elicited by a step pulse to +10 mV for 500 ms from a holding potential of −75 mV, followed by a pulse to −40 mV for 500 ms. Peak current was measured from the pulse to −40 mV. Six concentrations of each test compound were added to the cell in a cumulative manner starting with the lowest test concentration. Each cell served as its own control and data are presented as % reduction of current amplitude achieved in the presence of drug.

[2] = biological target: sodium channels in isolated cardiac cells (human atrial myocytes) (Homo sapiens, UniProt Q14524); assay: Sodium current (INa) block in isolated human atrial myocytes, whole-cell patch clamp; format: cell-based; conditions: pacing rates 0.1, 1 and 3 Hz, FIG. 2
sodium channels in isolated cardiac cells (human atrial myocytes), sequence (Q14524 whole entry): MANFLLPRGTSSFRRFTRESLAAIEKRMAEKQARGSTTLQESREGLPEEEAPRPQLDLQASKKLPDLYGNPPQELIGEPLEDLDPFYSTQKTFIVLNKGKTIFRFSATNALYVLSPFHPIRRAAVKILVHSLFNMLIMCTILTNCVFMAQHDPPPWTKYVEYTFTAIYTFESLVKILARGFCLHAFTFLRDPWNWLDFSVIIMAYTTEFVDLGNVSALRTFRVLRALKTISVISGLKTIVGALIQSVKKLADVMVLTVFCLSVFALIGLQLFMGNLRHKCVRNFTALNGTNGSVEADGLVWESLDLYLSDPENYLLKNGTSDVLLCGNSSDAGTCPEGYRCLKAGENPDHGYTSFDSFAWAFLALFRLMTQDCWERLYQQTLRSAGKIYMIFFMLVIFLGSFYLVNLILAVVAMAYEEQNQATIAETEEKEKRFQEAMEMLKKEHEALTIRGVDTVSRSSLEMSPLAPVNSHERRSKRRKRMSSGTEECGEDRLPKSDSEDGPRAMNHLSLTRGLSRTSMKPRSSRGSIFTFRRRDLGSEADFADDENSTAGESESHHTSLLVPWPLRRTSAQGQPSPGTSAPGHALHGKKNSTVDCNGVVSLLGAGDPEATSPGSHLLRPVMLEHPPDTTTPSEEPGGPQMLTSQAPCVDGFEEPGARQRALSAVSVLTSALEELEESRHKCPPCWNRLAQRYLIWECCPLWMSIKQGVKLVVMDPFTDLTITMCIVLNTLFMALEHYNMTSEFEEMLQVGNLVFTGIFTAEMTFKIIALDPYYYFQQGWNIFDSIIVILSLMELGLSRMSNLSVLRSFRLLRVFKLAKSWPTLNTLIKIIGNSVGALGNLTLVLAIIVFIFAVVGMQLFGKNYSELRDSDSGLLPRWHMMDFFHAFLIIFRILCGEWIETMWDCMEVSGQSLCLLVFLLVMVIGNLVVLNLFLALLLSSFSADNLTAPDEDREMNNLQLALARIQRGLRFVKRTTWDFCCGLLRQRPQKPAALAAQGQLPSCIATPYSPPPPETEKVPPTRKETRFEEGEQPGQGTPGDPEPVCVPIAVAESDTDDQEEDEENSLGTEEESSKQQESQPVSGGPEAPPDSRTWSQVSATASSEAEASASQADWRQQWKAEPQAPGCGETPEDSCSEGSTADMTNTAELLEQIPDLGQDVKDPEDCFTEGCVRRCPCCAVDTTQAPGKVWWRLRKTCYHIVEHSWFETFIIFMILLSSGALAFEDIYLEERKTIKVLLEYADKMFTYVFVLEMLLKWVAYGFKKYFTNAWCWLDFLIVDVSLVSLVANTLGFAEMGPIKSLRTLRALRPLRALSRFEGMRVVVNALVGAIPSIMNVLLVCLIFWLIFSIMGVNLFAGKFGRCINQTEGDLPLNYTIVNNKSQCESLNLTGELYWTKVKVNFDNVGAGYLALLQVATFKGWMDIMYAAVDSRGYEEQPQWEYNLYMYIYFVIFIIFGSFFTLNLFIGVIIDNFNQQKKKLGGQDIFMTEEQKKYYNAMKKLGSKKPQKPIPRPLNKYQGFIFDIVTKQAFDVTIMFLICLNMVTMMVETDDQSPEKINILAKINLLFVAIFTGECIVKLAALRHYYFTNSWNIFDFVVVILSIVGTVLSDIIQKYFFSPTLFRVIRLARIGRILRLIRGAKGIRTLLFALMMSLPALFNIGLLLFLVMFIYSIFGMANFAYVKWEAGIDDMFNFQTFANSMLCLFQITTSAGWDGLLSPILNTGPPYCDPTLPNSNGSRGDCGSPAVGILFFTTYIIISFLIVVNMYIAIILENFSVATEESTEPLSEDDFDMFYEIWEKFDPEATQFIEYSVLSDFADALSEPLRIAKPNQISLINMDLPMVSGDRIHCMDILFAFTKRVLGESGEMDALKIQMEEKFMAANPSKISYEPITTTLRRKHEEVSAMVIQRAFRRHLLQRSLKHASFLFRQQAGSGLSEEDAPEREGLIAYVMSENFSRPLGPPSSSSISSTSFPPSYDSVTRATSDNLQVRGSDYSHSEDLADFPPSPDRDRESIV
Procedure: Phenyloin and compounds prepared in accordance with Example 1 were evaluated in vitro to determine their ability to block sodium channels in isolated cardiac cells (human atrial myocytes) using the whole-cell patch clamp method
Human myocytes were obtained from specimens of human right atrial appendages obtained during surgery from hearts of patients undergoing cardiopulmonary bypass surgery. The procedure produced rod-shaped, ion tolerant cells which were used within 24 hours after isolation. See Crumb et al. (1995) Am J Physiol 268:H1335-H1342. […]
After rupture of the cell membrane (entering whole-cell mode), current kinetics and amplitudes were allowed to stabilize as the cell was dialyzed with internal solution and paced at 3 Hz (3-5 minutes). Sodium current (INa) was measured using a voltage pulse to −20 mV (40 ms pulse duration) from a holding potential of −80 mV. Peak inward current was measured for INa. […]
Currents and voltages were recorded with patch-clamp amplifiers (Axopatch 1-B, Axon Instruments). […] Data was presented as % reduction of current amplitude, measured as current reduction after a steady-state effect had been reached in the presence of test article relative to current amplitude before introduction of test article (control). […]

T1 sequence (Q12809 whole entry): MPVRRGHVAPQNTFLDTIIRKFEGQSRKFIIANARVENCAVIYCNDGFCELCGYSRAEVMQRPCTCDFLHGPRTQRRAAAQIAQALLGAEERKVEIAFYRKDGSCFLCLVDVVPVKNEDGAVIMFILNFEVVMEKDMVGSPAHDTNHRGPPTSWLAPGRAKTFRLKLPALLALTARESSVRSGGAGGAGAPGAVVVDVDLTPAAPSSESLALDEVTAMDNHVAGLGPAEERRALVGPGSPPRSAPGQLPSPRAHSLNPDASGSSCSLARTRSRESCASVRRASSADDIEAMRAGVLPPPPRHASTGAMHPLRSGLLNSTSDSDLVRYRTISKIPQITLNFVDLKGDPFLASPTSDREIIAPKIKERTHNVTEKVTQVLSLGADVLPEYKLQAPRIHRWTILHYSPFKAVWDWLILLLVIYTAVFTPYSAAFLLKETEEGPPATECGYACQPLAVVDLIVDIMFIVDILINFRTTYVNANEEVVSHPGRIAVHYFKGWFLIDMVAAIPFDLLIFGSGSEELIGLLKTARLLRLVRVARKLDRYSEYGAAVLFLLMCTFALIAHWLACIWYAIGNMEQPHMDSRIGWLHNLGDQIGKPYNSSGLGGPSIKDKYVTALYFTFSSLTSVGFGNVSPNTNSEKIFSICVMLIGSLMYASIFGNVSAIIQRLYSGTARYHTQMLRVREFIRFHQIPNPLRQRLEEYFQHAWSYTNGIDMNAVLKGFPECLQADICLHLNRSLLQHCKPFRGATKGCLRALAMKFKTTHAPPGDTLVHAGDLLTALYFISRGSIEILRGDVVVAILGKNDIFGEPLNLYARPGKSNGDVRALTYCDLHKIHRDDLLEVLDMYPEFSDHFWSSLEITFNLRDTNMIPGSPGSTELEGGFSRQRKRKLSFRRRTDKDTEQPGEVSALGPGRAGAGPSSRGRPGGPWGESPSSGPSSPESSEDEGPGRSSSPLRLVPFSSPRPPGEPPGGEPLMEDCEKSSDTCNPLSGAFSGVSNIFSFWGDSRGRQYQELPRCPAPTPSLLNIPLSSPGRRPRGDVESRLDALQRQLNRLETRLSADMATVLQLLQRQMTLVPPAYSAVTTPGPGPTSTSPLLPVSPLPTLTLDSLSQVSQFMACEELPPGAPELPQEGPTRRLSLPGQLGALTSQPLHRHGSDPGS

SMILES | IC50 [1] [µM] | frequency-dependence of sodium channel block (in words) [2]
COCCOCCOCCOCCOCCOCCOCCN1C(=O)NC(=O)C1(c1ccccc1)c1ccccc1 [mPEG7-N-Phenytoin] | > 100 | –
COCCOCCOCCOCCN1C(=O)NC(=O)C1(c1ccccc1)c1ccccc1 [mPEG4-N-Phenytoin] | 88.9 | –
COCCOCCOCCOCCOCCN1C(=O)NC(=O)C1(c1ccccc1)c1ccccc1 [mPEG5-N-Phenytoin] | > 100 | –
O=C1NC(=O)C(c2ccccc2)(c2ccccc2)N1 [Phenytoin, 5,5-diphenylhydantoin] | – | frequency-dependent block of sodium channels

From patent US9540330B2, “Oligomer-containing hydantoin compounds” (Nektar Therapeutics, priority 2010, dated 2017)
